Our source for the Ki values is BindingDB's records for doi:10.1021/jm060173k (Schering-Plough Research Institute, 2007).

A value given as a limit tells only on which side of the number the result lay.

The target in this assay is Genome polyprotein (Hepatitis C virus genotype 1a (isolate H77), UniProt P27958). The assay is described as follows: Continuous Spectrophotometric Assay. The method, then:
Proteolytic cleavage of the ester linkage between the Nva (L-norvaline) and the chromophore (PAP) was monitored for change in absorbance at 370 nm. Initial velocities were determined using linear regression and kinetic constants were obtained by fitting the data to the Michaelis-Menten equation.

Genome polyprotein, sequence (P27958 1027-1657 limits assumed): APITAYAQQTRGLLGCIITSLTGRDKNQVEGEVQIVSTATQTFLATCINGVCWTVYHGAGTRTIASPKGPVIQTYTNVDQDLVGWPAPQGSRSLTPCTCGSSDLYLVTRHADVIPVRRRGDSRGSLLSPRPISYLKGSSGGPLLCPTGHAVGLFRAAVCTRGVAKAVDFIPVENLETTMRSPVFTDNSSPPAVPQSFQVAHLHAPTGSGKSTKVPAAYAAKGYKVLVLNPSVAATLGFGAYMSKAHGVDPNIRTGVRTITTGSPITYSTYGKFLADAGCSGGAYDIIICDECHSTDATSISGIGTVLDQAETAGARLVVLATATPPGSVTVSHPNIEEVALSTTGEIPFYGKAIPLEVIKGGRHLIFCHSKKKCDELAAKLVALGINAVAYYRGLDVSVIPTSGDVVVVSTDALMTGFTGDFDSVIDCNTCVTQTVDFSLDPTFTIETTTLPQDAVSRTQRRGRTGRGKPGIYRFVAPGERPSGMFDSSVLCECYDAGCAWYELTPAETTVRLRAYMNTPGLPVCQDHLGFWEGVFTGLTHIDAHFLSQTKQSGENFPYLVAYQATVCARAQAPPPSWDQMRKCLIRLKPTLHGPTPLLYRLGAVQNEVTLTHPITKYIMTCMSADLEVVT

Take `CC(C)(C)NC(=O)NC(C(=O)N1C[C@@H]2OC(C)(C)C[C@@H]2C1C(=O)NC(CC1CCC1)C(=O)C(N)=O)C(C)(C)C` (stereo partly drawn) [3-{[(3aR,6aR)-5-{2-[(tert-butylcarbamoyl)amino]-3,3-dimethylbutanoyl}-2,2-dimethyl-hexahydro-2H-furo[2,3-c]pyrrol-4-yl]formamido}-4-cyclobutyl-2-oxobutanamide]: the inhibitory constant (Ki) (usually the dissociation constant of the complex between target and ligand, obtained from inhibition or displacement) was determined as 0.5 µM. Same read-out and setting: the same measure for `CC(C)(C)NC(=O)NC(C(=O)N1C[C@@H]2OC(C)(C)[C@@H]2C1C(=O)NC(CC1CCC1)C(=O)C(N)=O)C(C)(C)C` (stereo partly drawn) [3-{[(1R,5R)-3-{2-[(tert-butylcarbamoyl)amino]-3,3-dimethylbutanoyl}-7,7-dimethyl-6-oxa-3-azabicyclo[3.2.0]heptan-2-yl]formamido}-4-cyclobutyl-2-oxobutanamide]: 0.96 µM.

With `CC(C)(C)NC(=O)NC(C(=O)N1C[C@H]2[C@@H](C1C(=O)NC(C(=O)C(N)=O)C1CCC1)C2(C)C)C(C)(C)C` (stereo partly drawn) [3-{[(1R,5S)-3-{2-[(tert-butylcarbamoyl)amino]-3,3-dimethylbutanoyl}-6,6-dimethyl-3-azabicyclo[3.1.0]hexan-2-yl]formamido}-3-cyclobutyl-2-oxopropanamide], the affinity (pH 6.5, 30 °C) corresponds to a Ki of 0.1 µM.

In turn, `CC(C)C(NC(=O)NC(C)(C)C)C(=O)N1C[C@H]2[C@@H](C1C(=O)NC(CC1CC1)C(=O)C(N)=O)C2(C)C` (stereo partly drawn) [3-{[(1R,5S)-3-{2-[(tert-butylcarbamoyl)amino]-3-methylbutanoyl}-6,6-dimethyl-3-azabicyclo[3.1.0]hexan-2-yl]formamido}-4-cyclopropyl-2-oxobutanamide] came in with an inhibition constant Ki of 0.1 µM. Turning to `CC(C)(C)NC(=O)NC(C(=O)N1C[C@H]2[C@@H](C1C(=O)NC(CC1CC(F)(F)C1)C(=O)C(N)=O)C2(C)C)C(C)(C)C` (stereo partly drawn) [3-{[(1R,5S)-3-{2-[(tert-butylcarbamoyl)amino]-3,3-dimethylbutanoyl}-6,6-dimethyl-3-azabicyclo[3.1.0]hexan-2-yl]formamido}-4-(3,3-difluorocyclobutyl)-2-oxobutanamide], the Ki is 0.115 µM. Still for that read-out and setting: with `CC(C)OC(=O)NC(C(=O)N1C[C@H]2[C@@H](C1C(=O)NC(CC1CC1)C(=O)C(N)=O)C2(C)C)C1CCCCC1` (stereo partly drawn) [propan-2-yl N-{2-[(1R,5S)-2-[(1-carbamoyl-3-cyclopropyl-1-oxopropan-2-yl)carbamoyl]-6,6-dimethyl-3-azabicyclo[3.1.0]hexan-3-yl]-1-cyclohexyl-2-oxoethyl}carbamate] the figure was 0.06 µM. As to `CCCCC(NC(=O)C1[C@@H]2[C@H](CN1C(=O)C(NC(=O)OC(C)(C)C)C(C)(C)C)C2(C)C)C(=O)C(N)=O` (stereo partly drawn) [tert-butyl N-{1-[(1R,5S)-2-[(1-carbamoyl-1-oxohexan-2-yl)carbamoyl]-6,6-dimethyl-3-azabicyclo[3.1.0]hexan-3-yl]-3,3-dimethyl-1-oxobutan-2-yl}carbamate], the Ki (pH 6.5, 30 °C) amounted to 0.36 µM. `COC(=O)NC(C(=O)N1C[C@H]2[C@@H](C1C(=O)NC(CC1CC1)C(=O)C(N)=O)C2(C)C)C1CCCCC1` (stereo partly drawn) [methyl N-{2-[(1R,5S)-2-[(1-carbamoyl-3-cyclopropyl-1-oxopropan-2-yl)carbamoyl]-6,6-dimethyl-3-azabicyclo[3.1.0]hexan-3-yl]-1-cyclohexyl-2-oxoethyl}carbamate]: the inhibition constant (Ki) came to 0.8 µM. As for `CCCC(NC(=O)C1[C@@H]2[C@H](CN1C(=O)C(NC(=O)NC(C)(C)C)C1CCCCC1)C2(C)C)C(=O)C(N)=O` (stereo partly drawn) [3-{[(1R,5S)-3-{2-[(tert-butylcarbamoyl)amino]-2-cyclohexylacetyl}-6,6-dimethyl-3-azabicyclo[3.1.0]hexan-2-yl]formamido}-2-oxohexanamide], the Ki (pH 6.5, 30 °C) was found to be 0.054 µM. Compound `CC(C)CC(NC(=O)C(NC(=O)NC(C)(C)C)C(C)(C)C)C(=O)NC(CC1CCC1)C(=O)C(N)=O` (stereo not given) [2-{2-[(tert-butylcarbamoyl)amino]-3,3-dimethylbutanamido}-N-(1-carbamoyl-3-cyclobutyl-1-oxopropan-2-yl)-4-methylpentanamide] registered an inhibition constant (Ki) of 1 µM. Under “pH 6.5, 30 °C”, `CC(C)(C)CC(NC(=O)C1[C@@H]2[C@H](CN1C(=O)C(NC(=O)OC(C)(C)C)C(C)(C)C)C2(C)C)C(=O)C(N)=O` (stereo partly drawn) [tert-butyl N-{1-[(1R,5S)-2-[(1-carbamoyl-4,4-dimethyl-1-oxopentan-2-yl)carbamoyl]-6,6-dimethyl-3-azabicyclo[3.1.0]hexan-3-yl]-3,3-dimethyl-1-oxobutan-2-yl}carbamate] came in with a Ki above 3.3 µM. For the compound `CC(C)(C)NC(=O)NC(C(=O)N1C[C@H]2[C@@H](C1C(=O)NC(CC1CCC1)C(=O)C(N)=O)C2(F)F)C(C)(C)C` (stereo partly drawn) [3-{[(1S,5R)-3-{2-[(tert-butylcarbamoyl)amino]-3,3-dimethylbutanoyl}-6,6-difluoro-3-azabicyclo[3.1.0]hexan-2-yl]formamido}-4-cyclobutyl-2-oxobutanamide], the inhibition constant Ki amounted to 0.14 µM.

Compound `CC(=O)NC(C(=O)NC(C(=O)N1C[C@H]2[C@@H](C1C(=O)NC(CC1CCC1)C(=O)C(N)=O)C2(C)C)C(C)(C)C)C(C)C` (stereo partly drawn) [N-{1-[(1R,5S)-2-[(1-carbamoyl-3-cyclobutyl-1-oxopropan-2-yl)carbamoyl]-6,6-dimethyl-3-azabicyclo[3.1.0]hexan-3-yl]-3,3-dimethyl-1-oxobutan-2-yl}-2-acetamido-3-methylbutanamide] yielded an inhibitory constant (Ki) of 0.038 µM. The same measure, in the same setting: with `CC(C)(C)NC(=O)NC(C(=O)N1C[C@H]2[C@@H](C1C(=O)NC(CC1CCC1)C(=O)C(N)=O)C2(Cl)Cl)C(C)(C)C` (stereo partly drawn) [3-{[(1S,5R)-3-{2-[(tert-butylcarbamoyl)amino]-3,3-dimethylbutanoyl}-6,6-dichloro-3-azabicyclo[3.1.0]hexan-2-yl]formamido}-4-cyclobutyl-2-oxobutanamide] the figure was 0.019 µM. Still for that read-out and setting: the same measure for `CCOC(=O)NC(C(=O)N1C[C@H]2[C@@H](C1C(=O)NC(CC1CC1)C(=O)C(N)=O)C2(C)C)C1CCCCC1` (stereo partly drawn) [ethyl N-{2-[(1R,5S)-2-[(1-carbamoyl-3-cyclopropyl-1-oxopropan-2-yl)carbamoyl]-6,6-dimethyl-3-azabicyclo[3.1.0]hexan-3-yl]-1-cyclohexyl-2-oxoethyl}carbamate]: 0.23 µM; for `CC(C)(C)NC(=O)NC(C(=O)N1C[C@H]2[C@@H](C1C(=O)NC(CC1CC1(F)F)C(=O)C(N)=O)C2(C)C)C(C)(C)C` (stereo partly drawn) [3-{[(1R,5S)-3-{2-[(tert-butylcarbamoyl)amino]-3,3-dimethylbutanoyl}-6,6-dimethyl-3-azabicyclo[3.1.0]hexan-2-yl]formamido}-4-(2,2-difluorocyclopropyl)-2-oxobutanamide]: 0.05 µM. The compound `CC(C)CC(NC(=O)C1[C@@H]2[C@H](CN1C(=O)C(NC(=O)OC(C)(C)C)C(C)(C)C)C2(C)C)C(=O)C(N)=O` (stereo partly drawn) [tert-butyl N-{1-[(1R,5S)-2-[(1-carbamoyl-4-methyl-1-oxopentan-2-yl)carbamoyl]-6,6-dimethyl-3-azabicyclo[3.1.0]hexan-3-yl]-3,3-dimethyl-1-oxobutan-2-yl}carbamate] gave a Ki (pH 6.5, 30 °C) of 0.48 µM.

`CC(C)(C)OC(=O)NC(C(=O)N1C[C@H]2[C@@H](C1C(=O)NC(C(=O)C(N)=O)C(C)(C)C)C2(C)C)C(C)(C)C` (stereo partly drawn) [tert-butyl N-{1-[(1R,5S)-2-[(1-carbamoyl-3,3-dimethyl-1-oxobutan-2-yl)carbamoyl]-6,6-dimethyl-3-azabicyclo[3.1.0]hexan-3-yl]-3,3-dimethyl-1-oxobutan-2-yl}carbamate] yielded a Ki (pH 6.5, 30 °C) above 69 µM.

Compound `CC(=O)NC(C(=O)NC(C(=O)N1C[C@H]2[C@@H](C1C(=O)NC(CC1CC1)C(=O)C(N)=O)C2(C)C)C1CCCCC1)C(C)C` (stereo partly drawn) [N-{2-[(1R,5S)-2-[(1-carbamoyl-3-cyclopropyl-1-oxopropan-2-yl)carbamoyl]-6,6-dimethyl-3-azabicyclo[3.1.0]hexan-3-yl]-1-cyclohexyl-2-oxoethyl}-2-acetamido-3-methylbutanamide] returned a Ki of 0.068 µM.

Take `CCCC(NC(=O)C1[C@@H]2[C@H](CN1C(=O)C(NC(=O)OC(C)(C)C)C(C)(C)C)C2(C)C)C(=O)C(N)=O` (stereo partly drawn) [tert-butyl N-{1-[(1R,5S)-2-[(1-carbamoyl-1-oxopentan-2-yl)carbamoyl]-6,6-dimethyl-3-azabicyclo[3.1.0]hexan-3-yl]-3,3-dimethyl-1-oxobutan-2-yl}carbamate]: for the setting “pH 6.5, 30 °C”, affinity was put at a Ki of 0.22 µM.
